Results on eight compounds are retold here after PubChem BioAssay (NCI).

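Five concentrations, 48 hours, 96-well plates. The concentration for 50% growth inhibition is given as GI50. TGI: concentration producing complete growth inhibition.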

Common to all, as to test: DTP human tumour cell line panel, 48 h
Test [1] has as its system 786-0 renal.
Test [2] has as its system DU-145 prostate.
For test [3], the system named is HCC-2998 colon.
The test system of test [4] is HOP-62 NSCLC.
For test [5], the system named is HOP-92 NSCLC.
The test system of test [6] is MCF7 breast.
Test [7] deals with MOLT-4 leukemia.
The subject of test [8] is NCI-H522 lung.
The test system of test [9] is TK-10 renal.
For test [10], the system named is UACC-62 melanoma.

Consider `COc1c(O)cc2oc3cc(O)c(CC=C(C)C)c(O)c3c(=O)c2c1C/C=C(\C)CCC=C(C)C`, for which the GI50 is 6360 nM in test [1]; 5980 nM in [2]; 7060 nM in test [3]; 5660 nM in test [4]; 6520 nM in [5]; 6150 nM in test [6]. Moreover, the GI50 in test [7] is 6110 nM; in test [8], 5920 nM; in test [9], 8150 nM; in test [10], 5510 nM. The TGI in test [1] was 11600 nM; in [2], 10500 nM; in test [3], 13600 nM; in [4], 10100 nM; in [5], 11500 nM; in test [6], 13700 nM. Further, the TGI in test [7] was found to be 16300 nM; in test [8] it was 10800 nM; in test [9], 15500 nM; in test [10] it was 11300 nM.
As to `COc1ccc2c(CN3CCC(CO)CC3)cc3cc4c(cc3c2c1)OCO4`, the GI50 in [1] was 227 nM; in test [2], 250 nM; in test [3], 194 nM; in test [4] it was 272 nM; in [5] it was 91.1 nM; in [6], 211 nM. Further, the GI50 is 175 nM in test [7], 135 nM in test [8], 407 nM in test [9] and 235 nM in test [10]. Further, the concentration for total growth inhibition (TGI) turned out to be 4650 nM in test [1]; 12600 nM in test [2]; 1410 nM in test [3]; 2030 nM in test [4]; 633 nM in test [5]; 2550 nM in [6]. Further, the TGI was found to be 1440 nM in test [7], 363 nM in test [8], 8650 nM in [9] and 539 nM in test [10].
With `C=C1C(=O)OC2C1C(OC(=O)/C(C)=C/C)CC(O)(CCl)C1C(OC(C)=O)C=C(C)C21O` (stereo not given), the TGI in [1] was 32900 nM; in test [2], 29000 nM; in test [3], 31900 nM; in test [4] it was > 66000 nM; in [5], 27900 nM; in test [6], 19800 nM. The TGI is 21100 nM in [7], 5940 nM in test [8], 27300 nM in test [9] and 29300 nM in [10].
For the compound `C[C@@H](Oc1cc(-c2cnn(C3CCNCC3)c2)cnc1N)c1c(Cl)ccc(F)c1Cl`, the GI50 in test [1] was 2720 nM; in [2], 2740 nM; in test [3] it was 2280 nM; in [4], 2570 nM; in test [5] it was 236 nM; in test [6], 457 nM. For the same compound, the GI50 in test [7] is 701 nM; in test [8], 1300 nM; in [9] it was 2760 nM; in test [10], 1540 nM. For the same compound, the TGI in test [1] was 8940 nM; in [2] it was > 10000 nM; in test [3], > 10000 nM; in test [4], > 10000 nM; in test [5], 2620 nM; in [6], 2430 nM. In addition, the TGI in [7] was 4390 nM; in test [8], 3200 nM; in test [9] it was > 10000 nM; in test [10], 4660 nM.
Consider `COc1cccc(-c2nc(-c3ccc(NS(=O)(=O)c4ccccc4)cc3)[nH]c2-c2ccnc(Br)c2)c1`, for which the GI50 in [1] was 2980 nM; in test [2], 3690 nM; in test [3] it was 2120 nM; in test [4] it was 3390 nM; in test [5], 2460 nM; in test [6], 2640 nM. The GI50 was 2740 nM in [7], 2930 nM in test [8], 3720 nM in test [9] and 2580 nM in test [10]. For the same compound, the TGI in [1] is > 100000 nM; in test [2], > 100000 nM; in test [3] it was 4710 nM; in test [4] it was > 100000 nM; in test [5], 6540 nM; in test [6], > 100000 nM. Moreover, the total growth inhibition concentration (TGI) in test [7] is > 100000 nM; in test [8], > 100000 nM; in test [9] it was > 100000 nM; in test [10] it was 8560 nM.
Turning to `Clc1ccc(Nc2ccnc(NCCNc3ccnc4cc(Cl)ccc34)n2)cc1`, the GI50 in test [1] is 1620 nM; in test [2] it was 1590 nM; in test [3], 1220 nM; in test [4], 1270 nM; in [5], 126 nM; in test [6], 1080 nM. The GI50 in test [7] is 1490 nM; in test [8], 1700 nM; in [9], 1760 nM; in test [10] it was 1690 nM. For the same compound, the TGI amounted to 3440 nM in [1]; 2970 nM in test [2]; 2590 nM in test [3]; 2660 nM in test [4]; 2000 nM in test [5]; 2590 nM in test [6]. Besides, the TGI in [7] was 3550 nM; in test [8], 3270 nM; in test [9] it was 3170 nM; in test [10], 3170 nM.
For the compound `CCN(Cc1ccc(F)cc1F)c1ccc(CO)c(Cl)c1`, the GI50 in [1] was 5910 nM; in test [2] it was 20100 nM; in [3] it was 4260 nM; in test [4] it was 1840 nM; in test [5], 1180 nM; in test [6], 238 nM. Besides, the GI50 in [7] was 19700 nM; in test [8], 14800 nM; in test [9] it was 43.4 nM; in test [10], 98.1 nM. The TGI is 29000 nM in test [1]; > 70900 nM in test [2]; 20400 nM in test [3]; 20200 nM in test [4]; 16500 nM in test [5]; 12600 nM in test [6]. The TGI in test [7] is > 71500 nM; in test [8], 37600 nM; in [9], 245 nM; in test [10] it was 581 nM.
For the compound `COc1ccc(/C=C/C(=O)/C=C(/C=C/c2ccc(OC)c(OC)c2)OB(F)F)cc1OC`, the GI50 in test [1] was 1070 nM; in test [2], 1120 nM; in [3], 2020 nM; in test [4], 2460 nM; in test [5], 1710 nM; in [6] it was 400 nM. The GI50 in [7] is 449 nM; in test [8] it was 291 nM; in test [9], 1250 nM; in [10] it was 574 nM. The TGI in test [1] was 2930 nM; in test [2], 2840 nM; in test [3], 4170 nM; in test [4] it was 7050 nM; in test [5] it was 4890 nM; in test [6], > 100000 nM. The TGI is 6170 nM in test [7], 1450 nM in test [8], 9480 nM in test [9] and 2160 nM in test [10].
